Several values for one entry are separate records, joined by “and”; a condition that tells them apart may be missing. Identical values can stand only once. Like-named read-outs stand apart in the source and are kept apart here.
Legend:
[1] = tested on: patients with atrial fibrillation
Method: PETRO-Ex began while the PETRO study was ongoing and investigators were initially kept blinded to patient treatment group until PETRO was completed. Unblinding investigators to patient treatment was possible thereafter.
Data were summarized descriptively; no hypothesis was to be tested. Events were analyzed on the basis of the treatment at onset. Incidences were reported as number of patients with events as well as normalized to 100 patient years on the respective treatment.
Patients who completed PETRO on 50 mg b.i.d. were switched to 150 mg q.d. upon entry in the PETRO-Ex study (N=93 patients). […] Patients who were down titrated to 50 mg q.d. based on a glomerular filtration rate ≦50 mL/min during PETRO were excluded from the long-term trial; patients down-titrated in other dose levels remained on the q.d. treatment at that dose.
The former is represented by the number of thromboembolic events per 100 years, the latter by the number of bleeding events per 100 years.

[2] = in vivo; cited from earlier work
[3] = tested on: patients with atrial fibrillation at risk of stroke; settings: for Stroke, systemic embolism, pulmonary embolism, myocardial infarction death or major bleed, Rate / Stroke, systemic embolism, pulmonary embolism, myocardial infarction death or major bleed, RR: net benefit
Text: Median follow-up was 2.0 years and the primary outcome was stroke or systemic embolism.
Patients were recruited from 951 clinical centers in 44 countries. In brief, patients were eligible if they had atrial fibrillation documented on electrocardiogram at screening or within 6 months; and at least one of the following: prior stroke or transient ischemic attack; left ventricular ejection fraction less than 40%; New York Heart Association heart failure symptoms of Class 2 or greater within 6 months; age at least 75 years; or age at least 65 years with diabetes mellitus, hypertension or coronary artery disease.
The time in therapeutic range was calculated by the method of Rosendaal (Rosendaal F R, et al., A method to determine the optimal intensity of oral anticoagulant therapy, Thromb Haemost, 1993, 69:236-239), excluding INRs from the first week and after discontinuations. […] Concomitant use of aspirin (less than 100 mg/day) or other antiplatelet agents was allowed.
Liver function testing was performed monthly during the first year of follow-up.
The primary study outcome was stroke or systemic embolism. The primary safety outcome was major hemorrhage. Secondary outcomes were stroke, systemic embolism and death. Other outcomes were myocardial infarction, pulmonary embolism, transient ischemic attacks, and hospitalizations. The primary net benefit-risk outcome was the composite of stroke, systemic embolism, pulmonary embolism, myocardial infarction, death or major hemorrhage. Stroke was defined as sudden onset of focal neurological deficit consistent with the territory of a major cerebral artery and categorized as ischemic, hemorrhagic or unspecified. Hemorrhagic transformation of ischemic stroke was not considered as hemorrhagic stroke. Intracranial hemorrhage included hemorrhagic stroke and sub-dural or sub-arachnoid hemorrhage. Systemic embolism was an acute vascular occlusion of an extremity or organ documented by imaging, surgery or autopsy. Major bleeding was defined as a reduction in hemoglobin level of at least […] or transfusion of at least 2 units of blood or symptomatic bleeding in a critical area or organ. Life-threatening bleeding was a subset of major bleeding that included fatal bleeding, symptomatic intracranial bleeding, bleeding with hemoglobin decrease of more than […] or requiring transfusion of more than 4 units of blood or requiring inotropic agents or necessitating surgery. All other bleeding was considered minor.
All primary and secondary outcome events were blindly and doubly adjudicated. An international team of adjudicators reviewed documents in local languages after blinding; or documents were translated by a independent group and blinded centrally. All transient ischemic attacks were reviewed to ensure that strokes had not been missed. To detect possible unreported events, symptom questionnaires were regularly administered to patients, and adverse events and hospitalization reports were scrutinized for unreported primary or secondary outcomes.
If maximum of the two p-values was greater than 0.025, the minimum of the two p-values must be less than 0.0125, one-sided, to claim statistical significance. All analyses were based on intention-to-treat.

[4] = tested on: activated partial thromboplastin time (aPTT), ecarin clotting time, and thrombin clotting time; test: Clotting time prolongation
[5] = Clinical pharmacokinetics and pharmacodynamics of dabigatran etexilate; settings: human, plasma, oral
[6] = tested on: patients with chronic atrial fibrillation; test: PETRO study, phase 2 12-week dose finding study; assay type: in vivo, human; settings: in vivo
Text: Primary endpoints were bleeding events and changes in D-dimer. […] Minor bleeding was dose related.

Plasma protein binding = assay type: in vitro ADME; settings: read-out: Bound to plasma proteins
[7] = individual patients with LFT abnormalities, one table line per patient

[H]/N=C(/N)c1ccc(NCc2nc3cc(C(=O)N(CCC(=O)O)c4ccccn4)ccc3n2C)cc1 [Dabigatran]
Fatal major bleeds, number ([1]; 150 mg b.i.d.): 4 | Fatal major bleeds, number ([1]; 300 mg q.d.): 1 | Fatal bleeding events ([1]; all doses): 0.5 % per year | Fatal major bleeds, number ([1]; all doses): five | Intracranial bleed rate ([1]; all doses): 0.4 % per year | LFT abnormality ALT/ULN [1, 7]: >5x xULN (4×) and >5x^# xULN (2×) and >3x xULN (5×) and >3x^# xULN | LFT abnormality AST/ULN [1, 7]: >5x^# xULN (4×) and >5x xULN (4×) and >3x xULN (5×) | Serum half-life [2]: 12 to 17 h | All Death, Rate ([3]; Dabigatran 110 mg b.i.d.): 3.74 /100 Person Years | Disabling or Fatal Stroke Modified Rankin 3-6, Rate ([3]; Dabigatran 110 mg b.i.d.): 0.95 /100 Person Years | First Hospitalization, Rate ([3]; Dabigatran 110 mg b.i.d.): 25.1 /100 Person Years | Myocardial Infarction, Rate ([3]; Dabigatran 110 mg b.i.d.): 0.73 /100 Person Years | Non-disabling Stroke Modified Rankin 0-2, Rate ([3]; Dabigatran 110 mg b.i.d.): 0.51 /100 Person Years | Pulmonary embolism, Rate ([3]; Dabigatran 110 mg b.i.d.): 0.12 /100 Person Years | Stroke or systemic embolism, Rate ([3]; Dabigatran 110 mg b.i.d.): 1.55 /100 Person Years | Stroke, Hemorrhagic, Rate ([3]; Dabigatran 110 mg b.i.d.): 0.12 /100 Person Years | Stroke, Rate ([3]; Dabigatran 110 mg b.i.d.): 1.45 /100 Person Years | Vascular Death, Rate ([3]; Dabigatran 110 mg b.i.d.): 2.42 /100 Person Years | All Death, RR ([3]; Dabigatran 110 mg vs. Warfarin): 0.90 | Disabling or Fatal Stroke Modified Rankin 3-6, RR ([3]; Dabigatran 110 mg vs. Warfarin): 0.94 | First Hospitalization, RR ([3]; Dabigatran 110 mg vs. Warfarin): 0.92 | Myocardial Infarction, RR ([3]; Dabigatran 110 mg vs. Warfarin): 1.35 | Non-disabling Stroke Modified Rankin 0-2, RR ([3]; Dabigatran 110 mg vs. Warfarin): 0.87 | Pulmonary embolism, RR ([3]; Dabigatran 110 mg vs. Warfarin): 1.26 | Stroke or systemic embolism, RR ([3]; Dabigatran 110 mg vs. Warfarin): 0.91 | Stroke, Hemorrhagic, RR ([3]; Dabigatran 110 mg vs. Warfarin): 0.31 | Stroke, Ischemic or Unspecified, RR ([3]; Dabigatran 110 mg vs. Warfarin): 1.12 | Stroke, RR ([3]; Dabigatran 110 mg vs. Warfarin): 0.92 | Vascular Death, RR ([3]; Dabigatran 110 mg vs. Warfarin): 0.90 | All Death, Rate ([3]; Dabigatran 150 mg b.i.d.): 3.63 /100 Person Years | Disabling or Fatal Stroke Modified Rankin 3-6, Rate ([3]; Dabigatran 150 mg b.i.d.): 0.67 /100 Person Years | First Hospitalization, Rate ([3]; Dabigatran 150 mg b.i.d.): 26.7 /100 Person Years | Myocardial Infarction, Rate ([3]; Dabigatran 150 mg b.i.d.): 0.74 /100 Person Years | Non-disabling Stroke Modified Rankin 0-2, Rate ([3]; Dabigatran 150 mg b.i.d.): 0.36 /100 Person Years | Pulmonary embolism, Rate ([3]; Dabigatran 150 mg b.i.d.): 0.15 /100 Person Years | Stroke or systemic embolism, Rate ([3]; Dabigatran 150 mg b.i.d.): 1.11 /100 Person Years | Stroke, Hemorrhagic, Rate ([3]; Dabigatran 150 mg b.i.d.): 0.10 /100 Person Years | Stroke, Ischemic or Unspecified, Rate ([3]; Dabigatran 150 mg b.i.d.): 0.92 /100 Person Years | Stroke, Rate ([3]; Dabigatran 150 mg b.i.d.): 1.01 /100 Person Years | Vascular Death, Rate ([3]; Dabigatran 150 mg b.i.d.): 2.27 /100 Person Years | All Death, RR ([3]; Dabigatran 150 mg vs. 110 mg): 0.97 | Disabling or Fatal Stroke Modified Rankin 3-6, RR ([3]; Dabigatran 150 mg vs. 110 mg): 0.70 | First Hospitalization, RR ([3]; Dabigatran 150 mg vs. 110 mg): 1.06 | Myocardial Infarction, RR ([3]; Dabigatran 150 mg vs. 110 mg): 1.02 | Non-disabling Stroke Modified Rankin 0-2, RR ([3]; Dabigatran 150 mg vs. 110 mg): 0.71 | Pulmonary embolism, RR ([3]; Dabigatran 150 mg vs. 110 mg): 1.27 | Stroke or systemic embolism, RR ([3]; Dabigatran 150 mg vs. 110 mg): 0.72 | Stroke, Hemorrhagic, RR ([3]; Dabigatran 150 mg vs. 110 mg): 0.85 | Stroke, Ischemic or Unspecified, RR ([3]; Dabigatran 150 mg vs. 110 mg): 0.68 | Stroke, RR ([3]; Dabigatran 150 mg vs. 110 mg): 0.70 | Vascular Death, RR ([3]; Dabigatran 150 mg vs. 110 mg): 0.94 | All Death, RR ([3]; Dabigatran 150 mg vs. Warfarin): 0.88 | Disabling or Fatal Stroke Modified Rankin 3-6, RR ([3]; Dabigatran 150 mg vs. Warfarin): 0.66 | First Hospitalization, RR ([3]; Dabigatran 150 mg vs. Warfarin): 0.97 | Myocardial Infarction, RR ([3]; Dabigatran 150 mg vs. Warfarin): 1.38 | Non-disabling Stroke Modified Rankin 0-2, RR ([3]; Dabigatran 150 mg vs. Warfarin): 0.62 | Pulmonary embolism, RR ([3]; Dabigatran 150 mg vs. Warfarin): 1.61 | Stroke or systemic embolism, RR ([3]; Dabigatran 150 mg vs. Warfarin): 0.66 | Stroke, Hemorrhagic, RR ([3]; Dabigatran 150 mg vs. Warfarin): 0.26 | Stroke, Ischemic or Unspecified, RR ([3]; Dabigatran 150 mg vs. Warfarin): 0.76 | Stroke, RR ([3]; Dabigatran 150 mg vs. Warfarin): 0.64 | Vascular Death, RR ([3]; Dabigatran 150 mg vs. Warfarin): 0.84 | Mortality rate, death from any cause ([3]; dabigatran 110 mg twice daily): 3.74 % per year | Rate of hemorrhagic stroke ([3]; dabigatran 110 mg twice daily): 0.12 % per year | Rate of myocardial infarction ([3]; dabigatran 110 mg twice daily): 0.73 % per year | Rate of net benefit-risk outcome (major vascular events, major bleeding and death) ([3]; dabigatran 110 mg twice daily): 7.37 % per year | Rate of the primary outcome, stroke or systemic embolism ([3]; dabigatran 110 mg twice daily): 1.55 % per year | Mortality rate, death from any cause ([3]; dabigatran 150 mg twice daily): 3.63 % per year | Rate of hemorrhagic stroke ([3]; dabigatran 150 mg twice daily): 0.10 % per year | Rate of myocardial infarction ([3]; dabigatran 150 mg twice daily): 0.74 % per year | Rate of net benefit-risk outcome (major vascular events, major bleeding and death) ([3]; dabigatran 150 mg twice daily): 7.22 % per year | Rate of the primary outcome, stroke or systemic embolism ([3]; dabigatran 150 mg twice daily): 1.11 % per year | Hepatotoxicity ([3]; human, in vivo): no evidence of hepatotoxicity | Stroke, systemic embolism, pulmonary embolism, myocardial infarction death or major bleed, Rate ([3]; Dabigatran 110 mg b.i.d.): 7.37 /100 Person Years | Stroke, systemic embolism, pulmonary embolism, myocardial infarction death or major bleed, RR ([3]; Dabigatran 110 mg vs. Warfarin): 0.92 | Stroke, systemic embolism, pulmonary embolism, myocardial infarction death or major bleed, Rate ([3]; Dabigatran 150 mg b.i.d.): 7.22 /100 Person Years | Stroke, systemic embolism, pulmonary embolism, myocardial infarction death or major bleed, RR ([3]; Dabigatran 150 mg vs. 110 mg): 0.98 | Stroke, systemic embolism, pulmonary embolism, myocardial infarction death or major bleed, RR ([3]; Dabigatran 150 mg vs. Warfarin): 0.90 | Prolongation of aPTT, ecarin clotting time, and thrombin clotting time [4]: dose dependent prolongation | half-life [5]: 12 to 17 h | Change in D-dimer levels [6]: comparable to warfarin | fraction unbound (Plasma protein binding): 0.65 to 0.75

From patent US20110251160A1 (priority 2008, published 2011)
